# Data published in patent publication US8361998B2, “Compounds and their use as IKACh blockers” (AstraZeneca AB, priority 2010, dated 2013).
# Target: T1, human cardiac ion channel proteins hKir3.1/Kir3.4 (Homo sapiens, UniProt P48544+P48549)
# T1 construct: expressed in transfected cells
# T1 sequence (P48549 1-501): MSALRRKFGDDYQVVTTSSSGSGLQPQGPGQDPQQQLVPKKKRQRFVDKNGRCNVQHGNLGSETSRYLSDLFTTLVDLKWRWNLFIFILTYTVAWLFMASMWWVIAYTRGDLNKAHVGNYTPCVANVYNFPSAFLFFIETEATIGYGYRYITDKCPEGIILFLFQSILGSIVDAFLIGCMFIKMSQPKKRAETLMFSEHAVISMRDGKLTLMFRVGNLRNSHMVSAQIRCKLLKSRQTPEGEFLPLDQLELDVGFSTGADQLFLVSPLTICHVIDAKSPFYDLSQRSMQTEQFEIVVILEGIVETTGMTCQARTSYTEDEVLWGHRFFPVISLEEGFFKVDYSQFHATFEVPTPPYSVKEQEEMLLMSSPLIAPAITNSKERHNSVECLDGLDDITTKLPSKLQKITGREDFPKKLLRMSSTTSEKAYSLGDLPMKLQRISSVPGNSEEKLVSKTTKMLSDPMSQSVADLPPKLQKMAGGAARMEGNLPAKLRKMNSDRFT
# T1 sequence (P48544 1-419): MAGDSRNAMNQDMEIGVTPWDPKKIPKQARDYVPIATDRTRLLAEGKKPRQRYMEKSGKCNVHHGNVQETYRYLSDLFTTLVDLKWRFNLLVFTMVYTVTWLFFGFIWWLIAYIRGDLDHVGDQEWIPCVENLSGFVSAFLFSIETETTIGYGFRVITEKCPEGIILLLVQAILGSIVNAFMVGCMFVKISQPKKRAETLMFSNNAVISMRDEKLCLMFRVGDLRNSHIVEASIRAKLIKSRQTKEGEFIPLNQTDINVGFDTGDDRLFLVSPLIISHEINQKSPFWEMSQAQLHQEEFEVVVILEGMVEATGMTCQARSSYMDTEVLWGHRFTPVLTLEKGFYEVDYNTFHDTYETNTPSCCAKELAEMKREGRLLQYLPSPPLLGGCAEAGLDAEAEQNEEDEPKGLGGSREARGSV
# Assay: Atomic Absorption Screening (AAS) Rb efflux assay of hKir3.1/Kir3.4 block, carbachol/high K+ stimulated, 10-pt or 7-pt CR
# Type: cell-based
# Conditions: 10-pt CR (0.003 to 67 μmol/L), AAS Rb efflux, CHO-K1 cells expressing hKir3.1/Kir3.4; mean of >4 replicates; read-out: IKACh IC50 10-pt CR, AAS
# Procedure, shortened: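 CHO-K1 cells stably co-expressing human Kir3.1/Kir3.4 were Rb-loaded for 3 h at 37° C, preincubated with compound 5 min at RT, then stimulated 10 min with 10 μM carbachol plus 20 mM KCl (final). Supernatant Rb was measured by atomic absorption. Compounds ran at 0.003–67 μmol/L (10-pt) or 0.037–27 μmol/L (7-pt), threefold dilutions; IC50s are means of >4 or >3 replicates respectively.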
row,SMILES,IC50 [nM]
1,"CN(C(=O)c1cccc(Cl)c1F)[C@@H](CN1CC(O)C1)C1CCC1 [Example 35.11, 3-Chloro-N-[(1R)-1-cyclobutyl-2-(3-hydroxyazetidin-1-yl)ethyl]-2-fluoro-N-methylbenzamide]",4800
2,"COc1ccc(C(=O)N(C)[C@@H](CN2CC(O)C2)C2CCC2)c(F)c1 [Example 35.12, N-[(1R)-1-Cyclobutyl-2-(3-hydroxyazetidin-1-yl)ethyl]-2-fluoro-4-methoxy-N-methylbenzamide]",16000
3,"COc1ccc(C(=O)N(C)[C@@H](CN2CC(O)C2)C2CCC2)cc1F [Example 35.13, N-[(1R)-1-Cyclobutyl-2-(3-hydroxyazetidin-1-yl)ethyl]-3-fluoro-4-methoxy-N-methylbenzamide]",11000
4,"CN(C(=O)c1ccccc1)[C@@H](CN1CC(O)C1)C1CCC1 [Example 35.14, N-[(1R)-1-Cyclobutyl-2-(3-hydroxyazetidin-1-yl)ethyl]-N-methylbenzamide]",13000
5,"CN(C(=O)c1ccc(C#N)cc1)[C@H](CN1CC(O)C1)C1CCCCC1 [Example 36.1, 4-cyano-N-[(1S)-1-cyclohexyl-2-(3-hydroxyazetidin-1-yl)ethyl]-N-methylbenzamide]",410
6,"CN(C(=O)c1ccc(Cl)cc1)[C@H](CN1CC(O)C1)C1CCCCC1 [Example 36.2, 4-Chloro-N-[(1S)-1-cyclohexyl-2-(3-hydroxyazetidin-1-yl)ethyl]-N-methylbenzamide]",49
7,"CN(C(=O)c1cccc(C#N)c1)[C@H](CN1CC(O)C1)C1CCCCC1 [Example 36.3, 3-Cyano-N-[(1S)-1-cyclohexyl-2-(3-hydroxyazetidin-1-yl)ethyl]-N-methylbenzamide]",920
8,"CN(C(=O)c1ccc(C#N)cc1F)[C@H](CN1CC(O)C1)C1CCCCC1 [Example 36.4, 4-Cyano-N-[(1S)-1-cyclohexyl-2-(3-hydroxyazetidin-1-yl)ethyl]-2-fluoro-N-methylbenzamide]",330
9,"CN(C(=O)c1ccc(C(C)(C)C#N)cc1)[C@H](CN1CC(O)C1)C1CCCCC1 [Example 36.5, 4-(2-Cyanopropan-2-yl)-N-[(1S)-1-cyclohexyl-2-(3-hydroxyazetidin-1-yl)ethyl]-N-methylbenzamide]",1900
10,"CN(C(=O)c1cc(F)cc(C#N)c1)[C@H](CN1CC(O)C1)C1CCCCC1 [Example 36.6, 3-Cyano-N-[(1S)-1-cyclohexyl-2-(3-hydroxyazetidin-1-yl)ethyl]-5-fluoro-N-methylbenzamide]",1900
11,"CN(C(=O)c1ccc(F)cc1)[C@H](CN1CC(O)C1)C1CCCCC1 [Example 36.7, N-[(1S)-1-Cyclohexyl-2-(3-hydroxyazetidin-1-yl)ethyl]-4-fluoro-N-methylbenzamide]",1400
12,"CN(C(=O)c1ccccc1)[C@H](CN1CC(O)C1)C1CCCCC1 [Example 36.8, N-[(1S)-1-Cyclohexyl-2-(3-hydroxyazetidin-1-yl)ethyl]-N-methylbenzamide]",1100
13,"CCC[C@H](CN1CC(O)C1)N(C)C(=O)c1ccc(Cl)cc1 [Example 37, 4-Chloro-N-[(2R)-1-(3-hydroxyazetidin-1-yl)pentan-2-yl]-N-methylbenzamide]",9700
14,"CCc1ccc(C(=O)N(C)[C@@H](CC(C)C)CN2CC(O)C2)cc1 [Example 38.3, 4-Ethyl-N-[(2S)-1-(3-hydroxyazetidin-1-yl)-4-methylpentan-2-yl]-N-methylbenzamide]",2100
15,"CC(C)C[C@@H](CN1CC(O)C1)N(C)C(=O)c1cccc(C(F)F)c1 [Example 38.4, 3-(Difluoromethyl)-N-[(2S)-1-(3-hydroxyazetidin-1-yl)-4-methylpentan-2-yl]-N-methylbenzamide]",770
16,"COc1cc(C(=O)N(C)[C@@H](CC(C)C)CN2CC(O)C2)ccc1F [Example 38.5, 4-Fluoro-N-[(2S)-1-(3-hydroxyazetidin-1-yl)-4-methylpentan-2-yl]-3-methoxy-N-methylbenzamide]",4200
17,"COc1cc(Cl)ccc1C(=O)N(C)[C@@H](CC(C)C)CN1CC(O)C1 [Example 38.7, 4-Chloro-N-[(2S)-1-(3-hydroxyazetidin-1-yl)-4-methylpentan-2-yl]-2-methoxy-N-methylbenzamide]",470

row,SMILES,IC50 [nM]
1,"CSc1ccc(C(=O)N(C)[C@@H](CC(C)C)CN2CC(O)C2)cc1 [Example 38.8, N-[(2S)-1-(3-Hydroxyazetidin-1-yl)-4-methylpentan-2-yl]-N-methyl-4-(methylsulfanyl)benzamide]",830
2,"CN(C(=O)c1ccc(F)cc1Cl)[C@H](CN1CC(O)C1)C1CCC1 [Example 39.1, (S)-2-chloro-N-(1-cyclobutyl-2-(3-hydroxyazetidin-1-yl)ethyl)-4-fluoro-N-methylbenzamide]",1100
3,"CN(C(=O)c1ccc(F)c(F)c1)[C@H](CN1CC(O)C1)C1CCC1 [Example 39.3, (S)—N-(1-Cyclobutyl-2-(3-hydroxyazetidin-1-yl)ethyl)-3,4-difluoro-N-methylbenzamide]",410
4,"CN(C(=O)c1ccc(F)cc1F)[C@H](CN1CC(O)C1)C1CCC1 [Example 39.4, (S)—N-(1-Cyclobutyl-2-(3-hydroxyazetidin-1-yl)ethyl)-2,4-difluoro-N-methylbenzamide]",7800
5,"COc1ccc(C(=O)N(C)[C@H](CN2CC(O)C2)C2CCC2)c(F)c1 [Example 39.5, (S)—N-(1-Cyclobutyl-2-(3-hydroxyazetidin-1-yl)ethyl)-2-fluoro-4-methoxy-N-methylbenzamide]",1100
6,"COc1ccc(C(=O)N(C)[C@H](CN2CC(O)C2)C2CCC2)cc1F [Example 39.6, (S)—N-(1-Cyclobutyl-2-(3-hydroxyazetidin-1-yl)ethyl)-3-fluoro-4-methoxy-N-methylbenzamide]",480
7,"CN(C(=O)c1ccccc1)[C@H](CN1CC(O)C1)C1CCC1 [Example 39.7, (S)—N-(1-Cyclobutyl-2-(3-hydroxyazetidin-1-yl)ethyl)-N-methylbenzamide]",1400
8,"CN(C(=O)c1ccc(C(F)(F)F)cc1)[C@H](CN1CC(O)C1)C1CCC1 [Example 39.8, (S)—N-(1-Cyclobutyl-2-(3-hydroxyazetidin-1-yl)ethyl)-N-methyl-4-(trifluoromethyl)benzamide]",230
9,"COc1ccc(C(=O)N(C)[C@H](CN2CC(O)C2)C2CCC2)cc1C [Example 39.9, (S)—N-(1-Cyclobutyl-2-(3-hydroxyazetidin-1-yl)ethyl)-4-methoxy-N,3-dimethylbenzamide]",340
10,"Cc1ccc(F)c(C(=O)N(C)[C@H](CN2CC(O)C2)C2CCC2)c1 [Example 39.10, (S)—N-(1-Cyclobutyl-2-(3-hydroxyazetidin-1-yl)ethyl)-2-fluoro-N,5-dimethylbenzamide]",810
11,"CC[C@@H](CN1CC(O)C1)N(C)C(=O)c1ccc(Cl)c(F)c1 [Example 39.11, (S)-4-Chloro-3-fluoro-N-(1-(3-hydroxyazetidin-1-yl)butan-2-yl)-N-methylbenzamide]",1600
12,"CN(C(=O)c1ccc(F)cc1)[C@H](CN1CC(O)C1)C1CCC1 [Example 39.13, (S)—N-(1-Cyclobutyl-2-(3-hydroxyazetidin-1-yl)ethyl)-4-fluoro-N-methylbenzamide]",160
13,"CN(C(=O)c1cccc(C(F)F)c1)[C@H](CN1CC(O)C1)C1CCC1 [Example 39.15, (S)—N-(1-Cyclobutyl-2-(3-hydroxyazetidin-1-yl)ethyl)-3-(difluoromethyl)-N-methylbenzamide]",250
14,"C[C@@H](CN1CC(O)C1)N(C)C(=O)c1ccc(Cl)cc1 [Example 40.1, (S)-4-Chloro-N-(1-(3-hydroxyazetidin-1-yl)propan-2-yl)-N-methylbenzamide]",9700
15,"Cc1ccc(C(=O)N(C)[C@@H](C)CN2CC(O)C2)cc1C [Example 40.2, (S)—N-(1-(3-Hydroxyazetidin-1-yl)propan-2-yl)-N,3,4-trimethylbenzamide]",8500
16,"C[C@@H](CN1CC(O)C1)N(C)C(=O)c1ccc(Cl)c(F)c1 [Example 40.3, (S)-4-Chloro-3-fluoro-N-(1-(3-hydroxyazetidin-1-yl)propan-2-yl)-N-methylbenzamide]",9400
17,"Cc1cc(C(=O)N(C)[C@@H](C)CN2CC(O)C2)ccc1Cl [Example 40.4, (S)-4-Chloro-N-(1-(3-hydroxyazetidin-1-yl)propan-2-yl)-N,3-dimethylbenzamide]",6100
